{
  "source": "patent US20230014352A1",
  "about": "“INHALED STATINS AS BRONCHODILATORS TO IMPROVE LUNG FUNCTION IN RESPIRATORY DISEASES” (priority 2019, published 2023)",
  "key": {"ROCK-1": {"test_system": "ROCK-1", "assay": "Total ROCK-1 expression, western blot", "assay_type": "cell-based, human", "conditions": "1 μM, 24 hrs, FIG. 15C", "description": "(§1) Antibodies for western blot analysis against total and phospho-MLC2 were obtained from Santa Cruz Biotechnology and Cell Signaling Technology, respectively. Antibodies for pROCK1, total ROCK1, and GAPDH were obtained from Abcam. Pitavastatin was obtained from Santa Cruz Biotechnology.\n(§2) Non-asthmatic primary human ASM cells were treated with either vehicle or pitavastatin (1 μM) for 24 hours. Cells were then immuno-stained for F-actin expression. […] Cell lysates were analyzed by western blot for total ROCK-1, total ROCK-2, total MLC-2, and phosphorylated MLC-2. As shown in FIGS. 15C and 15D, pitavastatin reduced the total expression of ROCK-1, ROCK-2, and MLC-2 (total and phosphorylated)."}, "MLC-2": {"test_system": "MLC-2", "assay": "MLC-2 (total and phosphorylated) expression, western blot", "assay_type": "cell-based, human", "conditions": "1 μM, 24 hours", "description": "as §1, §2"}, "[1]": {"test_system": "Rho kinase (ROCK-1) phosphorylation", "assay": "Histamine-induced ROCK-1 phosphorylation, western blot", "assay_type": "cell-based, human", "conditions": "24 hrs; for inhibitory effect on ROCK-1 phosphorylation with mevalonate co-treatment: 1 μM with MA 200 μM", "description": "as §1\nHuman ASM cells were treated with pitavastatin (1 μM) with or without mevalonate (MA, 200 μM) for 24 hours, then treated with histamine (10 μM) for 5 minutes."}, "ROCK-2": {"test_system": "ROCK-2", "assay": "Total ROCK-2 expression, western blot", "assay_type": "cell-based, human", "conditions": "1 μM, 24 hrs, FIG. 15C", "description": "as §2"}, "IL6": {"test_system": "IL6", "assay": "IL17/TNFα-induced IL6 peptide secretion by ASM cells", "assay_type": "cell-based, human", "conditions": "2 mM pitavastatin, 72 hrs; cytokines 18 hrs at 10 ng/mL; 10% FBS; FIG. 14B", "description": "Non-asthmatic primary human ASM cells were grown to confluence and were either untreated or pre-treated with 2 mM pitavastatin and GGPP (10 mM) for a total of 72 hours. Total cytokine stimulation was for 18 hours at 10 ng/mL. […] All experiments were conducted under serum-containing media conditions (10% FBS)."}, "airways of C57BL/6 mice": {"test_system": "airways of C57BL/6 mice", "assay": "Non-inflammatory methacholine (MCh)-induced hypercontractile mouse model, airway % contraction in precision-cut lung slices", "assay_type": "in vivo", "conditions": "intratracheal 5 mg/kg for 5 days, 1 hr prior to each MCh nebulization", "description": "In this model, mice were administered nebulized methacholine (MCh) during postnatal maturation of ASM, which causes a hypercontractile phenotype without any induction of inflammatory responses.\nAll mouse experiments were approved by the Institutional Animal Care and Use Committee at Brigham & Women's Hospital, Harvard Medical School. The methacholine-induced hypercontractile mouse model has been described in K. R. Patel et al., FASEB J (2017) 31(10):4335-46. Briefly, mice (C57BL/6) were exposed to nebulized MCh (30 mg/mL) for 10 min daily between P15 and −20 (5 days). Control mice were administered nebulized normal saline. This establishes the MCh hyper-contractility asthma phenotype, a non-inflammatory model of asthmatic airway hyperresponsiveness AHR. Mice were administered intratracheal (i.t.) pitavastatin (5 mg/kg for five days) or vehicle control for 1 hour before each MCh nebulization. For airway % contraction assays, mouse precision-cut lung slices (PCLS) were stimulated to contract by increasing MCh concentrations (0.1-100 μM). For each measurement, at least n=4 mice were used from 2 independent experiments, and a total of 20-30 airways per lung."}, "ASM cells": {"test_system": "ASM cells", "assay": "Simulated deep breath (stretch-unstretch), cell mapping rheometry and CFS", "assay_type": "cell-based, human", "conditions": "1 μM, 24 hrs; for force recovery after single stretch-unstretch maneuver (stretch-induced ASM force relaxation): 10% magnitude, 4-sec stretch, recovery over 180 seconds, FIG. 12B", "description": "Well-defined biaxial stretch (4 sec duration, 10% magnitude) was imposed using the method of cell mapping rheometry. The strain energy from each ASM force map was computed as a metric of average cellular contraction, and reported as fold changes to the pre-stretch baseline value.\nNormal ASM was treated with pitavastatin (1 μM, 24 hrs, n=7), isoproterenol (10 μM, 30 min, n=6) or vehicle (n=7), and examined by CFS as described above. […] Shown are contraction values normalized to the untreated control group. […] The contraction force gradually recovered over 180 seconds. […] All data are reported as mean and standard error of the mean (SEM)."}, "eotaxin-3": {"test_system": "eotaxin-3", "assay": "Cytokine mixture (CM)-induced eotaxin-3 expression in ASM cells, dexamethasone with or without pitavastatin", "assay_type": "cell-based, human", "conditions": "pitavastatin 0.1, 0.5 or 1 μM added to dexamethasone 0.1, 1 or 5 μM, 60 hrs; CM 15 hrs; FIG. 18", "description": "Primary human airway smooth muscle cells were cultured to confluence in serum-containing media (10% FBS), then pre-treated with dexamethasone (“Dex”) at 0.1, 1, or 5 μM, with or without pitavastatin (“Pit”) at 0.1, 0.5, or 1 μM concentrations for 60 hrs. The ASM cells were then exposed to a mixture of cytokines ([…] IL-13, IL-17, and TNFα, “CM”) for 15 hrs, and the expression of eotaxin-3 was measured. “NT” means no treatment."}, "[2]": {"test_system": "precision-cut human lung slices", "assay": "Histamine-induced bronchoconstriction in precision-cut human lung slices, pitavastatin and isoproterenol", "conditions": "5 μM, 24 hours", "description": "The experiment was performed under serum-deprived media conditions, n=3-7 airways per group. Changes in lumen narrowing were reported as percentage changes (±SEM) of the pre-treatment state (see FIG. 13). The absolute value of lumen airway area was not statistically different between the pitavastatin and control groups at the pre-treatment state."}},
  "note": "Entries after “also recorded” stand apart in the source; their conditions may differ.",
  "data": [
    {"smiles": "O=C(O)C[C@H](O)C[C@H](O)/C=C/c1c(C2CC2)nc2ccccc2c1-c1ccc(F)cc1", "note": "[pitavastatin]", "values": [
      {"measurement": "total (basal) expression of ROCK-1", "setting": "ROCK-1", "value": "reduced"},
      {"measurement": "expression of MLC-2 (total and phosphorylated)", "setting": "MLC-2", "value": "reduced"},
      {"measurement": "inhibitory effect on ROCK-1 phosphorylation with mevalonate co-treatment", "setting": "[1]", "value": "abrogated"},
      {"measurement": "inhibitory effect on ROCK-1 phosphorylation with mevalonate co-treatment", "setting": "[1]; listed as Pit", "value": "abrogates"},
      {"measurement": "histamine-induced ROCK1 phosphorylation", "setting": "[1]; 1 μM, histamine 10 μM, 5 min, FIG. 5A", "value": "significantly reduced; also recorded: inhibits"},
      {"measurement": "total (basal) expression of ROCK-2", "setting": "ROCK-2", "value": "reduced"},
      {"measurement": "IL17/TNFα-induced IL6 peptide secretion", "setting": "IL6", "value": "inhibited"},
      {"measurement": "% airway contraction", "setting": "airways of C57BL/6 mice; FIG. 11B", "value": 14.2, "unit": "%"},
      {"measurement": "% contraction of airways", "setting": "airways of C57BL/6 mice; PCLS response to 500 nM MCh, FIG. 6", "value": 7.3, "unit": "%"},
      {"measurement": "basal ASM contraction compared to untreated controls", "setting": "ASM cells; FIG. 12A", "value": "significantly inhibited basal ASM contraction"},
      {"measurement": "force recovery after single stretch-unstretch maneuver (stretch-induced ASM force relaxation)", "setting": "ASM cells", "value": "significantly inhibited"},
      {"measurement": "force recovery after single stretch-unstretch maneuver (stretch-induced ASM force relaxation)", "setting": "ASM cells; listed as Pitavastatin", "value": "augmented stretch-induced ASM force relaxation"},
      {"measurement": "eotaxin-3 expression", "setting": "eotaxin-3", "value": "Significant reductions in eotaxin-3 expression"},
      {"measurement": "interference with the β2-agonist effect of isoproterenol", "setting": "[2]", "value": "did not interfere; also recorded: does not interfere"},
      {"measurement": "histamine (Hist)-induced bronchoconstriction", "setting": "[2]; histamine 10 μM 15 min, serum-deprived, FIG. 13", "value": "reduced"}
    ]}
  ]
}
